According to patent US9834526B2 (MERCK SHARP & DOHME CORP., priority 2013, dated 2017):

Target: T1, wildtype HIV-1 protease (Human immunodeficiency virus type 1 group M subtype B, UniProt P04585)
T1 construct: preincubated with the HIV-1 protease (wild type) enzyme in assay buffer; made in house; host or cells: Escherichia coli
Assay: Inhibition of microbial expressed HIV protease (Pepcleav)
Assay type: biochemical
Details: wild type HIV-1 protease expressed in E. coli, 20 pM enzyme, 400 micromolar peptide substrate, pH 5.5, LC-MS readout; mean of at least two independent experiments
Procedure: Assay for Inhibition of Microbial Expressed HIV Protease (“Pepcleav”)
Studies of the inhibition of the wildtype HIV-1 protease (which was expressed in Escherichia coli) were carried out with a peptide substrate [Val-Ser-Gln-Asn-(βnaphthyl)Ala-Pro-Ile-Val (SEQ ID NO:1)]. The inhibitor was first preincubated with the HIV-1 protease (wild type) enzyme in assay buffer (50 mM sodium acetate, pH 5.5, 100 mM NaCl, and 0.1% BSA) for 30 minutes at room temperature. Substrate was added to 400 micromolar in a total volume of 20 microliters containing 20 picomolar HIV-1 protease (final) and the reaction was incubated for 1 hour at 30° C. The reaction was quenched with the addition of formic acid and indinavir to 0.012% and 150 nM final concentrations, respectively. The product formation was determined after separation of product and substrate on a Zorbax Eclipse XDB-C18 column connected to an API 4000 mass spectrometer (Applied Biosystems) with multiple reaction monitoring (transitions were 644.5/428.9 and 615.4/422.2 (M1/M3) for product and indinavir respectively). The extent of inhibition of the reaction was determined from the peak area of the products. Analysis of the products, independently synthesized, provided quantitation standards and confirmation of the product composition.

Structure (SMILES)	IC50 [nM]
COC(=O)N[C@H](C(=O)Nc1ccccc1CC[C@@H]1CN[C@H](CO)[C@@H](CSc2nnc(-c3ccncc3)o2)O1)C(c1ccccc1)c1ccccc1 [Example 31, N-(2-{2-[(2R,5R,6S)-5-(hydroxymethyl)-6-({[5-(pyridin-4-yl)-1,3,4-oxadiazol-2-yl]sulfanyl}methyl)morpholin-2-yl]ethyl}phenyl)-Nα-(methoxycarbonyl)-β-phenyl-L-phenylalaninamide]	0.171
COC(=O)N[C@H](C(=O)Nc1ccccc1CC[C@@H]1CN[C@H](COCc2ccccc2)[C@@H](CSc2nnc(-c3ccncc3)o2)O1)C(c1ccccc1)c1ccccc1 [Example 33]	0.472
COC(=O)N[C@H](C(=O)Nc1ccccc1CC[C@@H]1CN[C@H](C)[C@@H](CSc2nc(C)cc(C(F)(F)F)n2)O1)C(c1ccccc1)c1ccccc1 [Example 18, methyl N-[(1S)-1-benzhydryl-2-[[2-[2-[(2R,5R,6S)-5-methyl-6-[[4-methyl-6-(trifluoromethyl)pyrimidin-2-yl]sulfanylmethyl]morpholin-2-yl]ethyl]phenyl]amino]-2-oxo-ethyl]carbamate]	34.9
COC(=O)N[C@H](C(=O)Nc1ccccc1CC[C@@H]1CN[C@H](C)[C@@H](CSc2ccc(Cl)cc2)O1)C(c1ccccc1)c1ccccc1 [Example 1, N-(2-{2-[(2R,5R,6S)-6-{[(4-chlorophenyl)sulfanyl]methyl}-5-methylmorpholin-2-yl]ethyl}phenyl)-Nα-(methoxycarbonyl)-β-phenyl-L-phenylalaninamide]	17.5
COC(=O)N[C@H](C(=O)Nc1ccccc1CC[C@@H]1CN[C@H](COC(=O)NCC(F)(F)F)[C@@H](CO)O1)C(c1ccccc1)c1ccccc1 [Example 46, N-(2-{2-[(2R,5R,6S)-6-(hydroxymethyl)-5-({[(2,2,2-trifluoroethyl)carbamoyl]oxy}methyl)morpholin-2-yl]ethyl}phenyl)-Nα-(methoxycarbonyl)-β-phenyl-L-phenylalaninamide]	65
C[C@@H]1O[C@H](CCc2c(F)cccc2NC(=O)[C@@H](N)C(c2ccc(F)cc2)c2ccc(F)cc2)CN[C@@H]1COC(=O)NCC(F)(F)F [Example 50, 4-fluoro-N-(3-fluoro-2-{2-[(2R,5R,6S)-6-methyl-5-({[(2,2,2-trifluoroethyl)carbamoyl]oxy}methyl)morpholin-2-yl]ethyl}phenyl)-β-(4-fluorophenyl)-L-phenylalaninamide]	30
COC(=O)N[C@H](C(=O)Nc1ccccc1CC[C@@H]1CN[C@H](C)[C@@H](CSc2nc3ncccc3[nH]2)O1)C(c1ccccc1)c1ccccc1 [Example 22, methyl N-[(1S)-1-benzhydryl-2-[[2-[2-[(2R,5R,6S)-6-(1H-imidazo[4,5-b]pyridin-2-ylsulfanylmethyl)-5-methyl-morpholin-2-yl]ethyl]phenyl]amino]-2-oxo-ethyl]carbamate]	44.4
C[C@H]1O[C@H](COc2c(F)cncc2NC(=O)[C@@H](N)C(c2ccc(F)cc2)c2ccc(F)cc2)CN[C@@H]1COC(N)=O [Example 52, N-[4-({(2S,5R,6R)-5-[(carbamoyloxy)methyl]-6-methylmorpholin-2-yl}methoxy)-5-fluoropyridin-3-yl]-4-fluoro-β-(4-fluorophenyl)-L-phenylalaninamide]	52
COC(=O)N[C@H](C(=O)Nc1ccccc1CC[C@@H]1CN[C@H](C)[C@@H](CSc2ccc(C)c(C)c2)O1)C(c1ccccc1)c1ccccc1 [Example 12, methyl N-[(1S)-1-benzhydryl-2-[[2-[2-[(2R,5R,6S)-6-[(3,4-dimethylphenyl)sulfanylmethyl]-5-methyl-morpholin-2-yl]ethyl]phenyl]amino]-2-oxo-ethyl]carbamate]	11.9
C[C@H]1O[C@H](CCc2c(F)cccc2NC(=O)[C@@H](N)C(c2ccc(F)cc2)c2ccc(F)cc2)CN[C@@H]1COC(=O)NCc1ccc(F)cc1 [Example 56, 4-fluoro-N-(3-fluoro-2-{2-[(2R,5R,6R)-5-({[(4-fluorobenzyl)carbamoyl]oxy}methyl)-6-methylmorpholin-2-yl]ethyl}phenyl)-β-(4-fluorophenyl)-L-phenylalaninamide]	7
C[C@H]1O[C@H](CCc2c(F)cncc2NC(=O)[C@@H](N)C(c2ccc(F)cc2)c2ccc(F)cc2)CN[C@@H]1COC(=O)NCC(F)(F)F [Example 57, 4-fluoro-N-(5-fluoro-4-{2-[(2R,5R,6R)-6-methyl-5-({[(2,2,2-trifluoroethyl)carbamoyl]oxy}methyl)morpholin-2-yl]ethyl}pyridin-3-yl)-β-(4-fluorophenyl)-L-phenylalaninamide]	59
COC(=O)N[C@H](C(=O)Nc1ccccc1CC[C@@H]1CN[C@H](C)[C@@H](CSc2ncccc2Cl)O1)C(c1ccccc1)c1ccccc1 [Example 3, N-(2-{2-[(2R,5R,6S)-6-{[(3-chloropyridin-2-yl)sulfanyl]methyl}-5-methylmorpholin-2-yl]ethyl}phenyl)-Nα-(methoxycarbonyl)-β-phenyl-L-phenylalaninamide]	7.52
COC(=O)N[C@H](C(=O)Nc1ccccc1CC[C@@H]1CN[C@H](C)[C@@H](CSc2cccc3ncccc23)O1)C(c1ccccc1)c1ccccc1 [Example 4, methyl [(2S)-1-{[2-(2-{(2R,5R,6S)-5-methyl-6-[(quinolin-5-ylsulfanyl)methyl]morpholin-2-yl}ethyl)phenyl]amino}-1-oxo-3,3-diphenylpropan-2-yl]carbamate]	10.6
COC(=O)N[C@H](C(=O)Nc1ccccc1CC[C@@H]1CN[C@H](C)[C@@H](CSc2nnc(-c3ccncc3)o2)O1)C(c1ccccc1)c1ccccc1 [Example 5, methyl N-[(1S)-1-benzhydryl-2-[[2-[2-[(2R,5R,6S)-5-methyl-6-[[5-(4-pyridyl)-1,3,4-oxadiazol-2-yl]sulfanylmethyl]morpholin-2-yl]ethyl]phenyl]amino]-2-oxo-ethyl]carbamate]	4.96
COC(=O)N[C@H](C(=O)Nc1ccccc1CC[C@@H]1CN[C@H](C)[C@@H](COc2ccc(C#N)cc2)O1)C(c1ccccc1)c1ccccc1 [Example 2]	222
COC(=O)N[C@H](C(=O)Nc1ccccc1CC[C@@H]1CN[C@H](C)[C@@H](CSc2nc3ccc(Cl)nc3s2)O1)C(c1ccccc1)c1ccccc1 [Example 21, methyl N-[(1S)-1-benzhydryl-2-[[2-[2-[(2R,5R,6S)-6-[(5-chlorothiazolo[5,4-b]pyridin-2-yl)sulfanylmethyl]-5-methyl-morpholin-2-yl]ethyl]phenyl]amino]-2-oxo-ethyl]carbamate]	44.3
COC(=O)N[C@H](C(=O)Nc1ccccc1CC[C@@H]1CN[C@H](C)[C@@H](CSc2nc(C)cc(C)c2C#N)O1)C(c1ccccc1)c1ccccc1 [Example 27, methyl N-[(1S)-1-benzhydryl-2-[[2-[2-[(2R,5R,6S)-6-[(3-cyano-4,6-dimethyl-2-pyridyl)sulfanylmethyl]-5-methyl-morpholin-2-yl]ethyl]phenyl]amino]-2-oxo-ethyl]carbamate]	124
C[C@@H]1O[C@H](CCc2c(F)cccc2NC(=O)[C@@H](N)C(c2ccc(F)cc2)c2ccc(F)cc2)CN[C@@H]1CO [Example 49, 4-fluoro-N-(3-fluoro-2-{2-[(2R,5R,6S)-5-(hydroxymethyl)-6-methylmorpholin-2-yl]ethyl}phenyl)-β-(4-fluorophenyl)-L-phenylalaninamide]	400
